Results taken from patent US11767341B2, “Lincosamide antibiotics and uses thereof” (President and Fellows of Harvard College, priority 2017, dated 2023).
In brackets after ≈: the same amount, converted by molar mass. Where two headings read alike, the source gives them in different places.

What was measured:
Assay in all cases: MIC determination
Type in all cases: cell-based
S. aureus ATCC 29213 = conditions: Staphylococcus aureus
S. pneumoniae ATCC 49619 = conditions: Streptococcus pneumoniae, ATCC49619; S. pneumoniae ATCC 49619; read-out: MIC
S. pyogenes ATCC 19615 = conditions: Streptococcus pyogenes, ATCC19615; S. pyogenes ATCC 19615; read-out: MIC
E. faecalis ATCC 29212 = conditions: Enterococcus faecalis
E. coli ATCC 25922 = conditions: Escherichia coli
S. aureus BAA 977 iErmA = conditions: Staphylococcus aureus, BAA977
K. pneumoniae ATCC 10031 = conditions: Klebsiella pneumoniae, ATCC10031
E. coli MP-9 ΔTolC = conditions: Escherichia coli
[1] = tested on: E. coli MP-74 LptD mutant; conditions: Escherichia coli
H. influenzae ATCC 49247 = conditions: Haemophilus influenzae, ATCC49247
[2] = tested on: S. aureus MP-549 msr(a) USA 300; conditions: Staphylococcus aureus, USA300, S. aureus MP-549 msr(a) USA 300
[3] = ATCC29213, S. aureus ATCC 29213, read-out: MIC
[4] = ATCC25922, E. coli ATCC 25922, read-out: MIC
[5] = H. influenzae ATCC 49247, read-out: MIC
[6] = K. pneumoniae ATCC 10031, read-out: MIC

Row | Compound | MIC (S. aureus ATCC 29213; [3]) [µg/mL] | MIC (S. pneumoniae ATCC 49619) [µg/mL] | MIC (S. pyogenes ATCC 19615) [µg/mL] | MIC (E. faecalis ATCC 29212; ATCC29212, read-out: MIC) [µg/mL] | MIC (E. coli ATCC 25922; [4]) [µg/mL] | MIC (S. aureus BAA 977 iErmA) [µg/mL] | MIC (K. pneumoniae ATCC 10031) [µg/mL] | MIC (E. coli ATCC 25922; ATCC25922) [µg/mL] | MIC (E. coli MP-9 ΔTolC) [µg/mL] | MIC [1] [µg/mL] | MIC (H. influenzae ATCC 49247) [µg/mL] | MIC (S. aureus ATCC 29213; ATCC29213) [µg/mL] | MIC [2] [µg/mL] | MIC (H. influenzae ATCC 49247; [5]) [µg/mL] | MIC (K. pneumoniae ATCC 10031; [6]) [µg/mL] | MIC (E. faecalis ATCC 29212; ATCC29212) [µg/mL]
1 | CSC1O[C@H]([C@H](NC(=O)[C@@H]2[C@@H]3OCC=CC[C@H]3CN2C2CC2)[C@H](C)Sc2ccc(-c3cccnc3)cc2)C(O)C(O)[C@H]1O (stereo partly drawn) [FSA-214009a] | 64 (≈ 102 µM) | 4 (≈ 6.37 µM) | 4 (≈ 6.37 µM) | > 64 | > 64 |  |  |  |  |  |  |  |  |  |  | 
2 | CSC1O[C@H]([C@H](NC(=O)[C@H]2NC[C@@H]3CC(c4cccc5cnccc45)=CCO[C@H]32)[C@H](C)Cl)C(O)[C@@H](O)[C@H]1O (stereo partly drawn) [FSA-510006] | 8 (≈ 14.2 µM) | 1 (≈ 1.77 µM) | 0.5 (≈ 0.886 µM) | 16 (≈ 28.4 µM) |  | 16 (≈ 28.4 µM) | > 64 | > 64 | > 64 | 64 (≈ 113 µM) | > 64 |  |  |  |  | 
3 | CSC1O[C@H]([C@H](NC(=O)[C@H]2NC[C@@H]3C[C@@H](c4ccc(C)cc4)CCO[C@H]32)[C@H](C)Cl)C(O)[C@@H](O)[C@H]1O (stereo partly drawn) [FSA-512079b] |  |  | ≤ 0.12 | 1 (≈ 1.89 µM) | > 128 |  | 16 (≈ 30.2 µM) |  | 8 (≈ 15.1 µM) | 16 (≈ 30.2 µM) | 16 (≈ 30.2 µM) | 0.5 (≈ 0.945 µM) | 0.5 (≈ 0.945 µM) |  |  | 
4 | CSC1O[C@H]([C@H](NC(=O)[C@H]2NC[C@@H]3C=C(c4ccc(C#N)cc4)CCO[C@@H]23)[C@H](C)Cl)C(O)[C@@H](O)[C@H]1O (stereo partly drawn) [FSA-512077] | 0.5 (≈ 0.929 µM) | ≤ 0.12 | ≤ 0.12 | 1 (≈ 1.86 µM) | > 256 |  |  |  | 16 (≈ 29.7 µM) | 64 (≈ 119 µM) |  |  | 0.25 (≈ 0.465 µM) | 128 (≈ 238 µM) |  | 
5 | CSC1O[C@H]([C@H](NC(=O)[C@H]2NC[C@@H]3C=C(C#Cc4ccccc4)CCO[C@@H]23)[C@H](C)Cl)C(O)[C@@H](O)[C@H]1O (stereo partly drawn) [FSA-510002] | 0.5 (≈ 0.931 µM) | 0.25 (≈ 0.465 µM) | 0.25 (≈ 0.465 µM) | 2 (≈ 3.72 µM) |  | 0.25 (≈ 0.465 µM) |  | > 64 | > 64 | 32 (≈ 59.6 µM) | 32 (≈ 59.6 µM) |  |  |  | 64 (≈ 119 µM) | 
6 | COc1ccc(C2=C[C@H]3CN[C@H](C(=O)N[C@H]([C@H](C)Cl)[C@H]4OC(SC)[C@H](O)[C@H](O)C4O)[C@@H]3OCC2)cc1 (stereo partly drawn) [FSA-512076] | 0.25 (≈ 0.46 µM) | ≤ 0.12 | ≤ 0.12 | 2 (≈ 3.68 µM) | > 256 |  |  |  | 64 (≈ 118 µM) | 64 (≈ 118 µM) |  |  | 0.25 (≈ 0.46 µM) | 128 (≈ 236 µM) |  | 
7 | CSC1O[C@H]([C@H](NC(=O)[C@H]2NC[C@@H]3C=C(c4ccc(C)cc4)CCO[C@@H]23)[C@H](C)Cl)C(O)[C@@H](O)[C@H]1O (stereo partly drawn) [FSA-512075] | 0.5 (≈ 0.949 µM) | 0.25 (≈ 0.474 µM) | 0.25 (≈ 0.474 µM) | 2 (≈ 3.79 µM) | > 256 |  |  |  | 32 (≈ 60.7 µM) | 64 (≈ 121 µM) | 64 (≈ 121 µM) |  | 0.25 (≈ 0.474 µM) |  |  | 
8 | CSC1O[C@H]([C@H](NC(=O)[C@H]2NC[C@@H]3C[C@H](c4ccc(C)cc4)CCO[C@H]32)[C@H](C)Cl)C(O)[C@@H](O)[C@H]1O (stereo partly drawn) [FSA-512079c] |  |  | ≤ 0.12 | 2 (≈ 3.78 µM) | > 128 |  | 16 (≈ 30.2 µM) |  | 8 (≈ 15.1 µM) | 16 (≈ 30.2 µM) | 16 (≈ 30.2 µM) | 0.5 (≈ 0.945 µM) | 0.5 (≈ 0.945 µM) |  |  | 
9 | CCOC(=O)CCN1C[C@@H]2CC=CCO[C@H]2[C@H]1C(=O)N[C@H]([C@H](C)Sc1ccc(-c2cccnc2)cc1)[C@H]1OC(SC)[C@H](O)[C@H](O)C1O (stereo partly drawn) [FSA-214009b] | > 64 | 32 (≈ 46.5 µM) | 8 (≈ 11.6 µM) | > 64 | > 64 |  |  |  |  |  |  |  |  |  |  | 
10 | CSC1O[C@H]([C@H](NC(=O)[C@H]2NC[C@@H]3C=C(C#Cc4cccc(F)c4)CCO[C@@H]23)[C@H](C)Cl)C(O)[C@@H](O)[C@H]1O (stereo partly drawn) [FSA-510003] | 0.5 (≈ 0.901 µM) | 0.25 (≈ 0.45 µM) | 0.25 (≈ 0.45 µM) | 1 (≈ 1.8 µM) |  | 0.25 (≈ 0.45 µM) |  | > 64 | > 64 | 32 (≈ 57.7 µM) |  |  |  | 16 (≈ 28.8 µM) | 16 (≈ 28.8 µM) | 
11 | CSC1O[C@H]([C@H](NC(=O)[C@H]2NC[C@@H]3C[C@@H](C4CCNCC4)CCO[C@H]32)[C@H](C)Cl)C(O)[C@@H](O)[C@H]1O (stereo partly drawn) [FSA-512011] | 8 (≈ 15.3 µM) | 1 (≈ 1.92 µM) | 4 (≈ 7.66 µM) | 64 (≈ 123 µM) |  |  |  | > 256 | > 256 | > 256 | > 256 |  | 8 (≈ 15.3 µM) |  |  | 
12 | CSC1O[C@H]([C@H](NC(=O)[C@H]2NC[C@@H]3CC(NC4CC4)CCO[C@H]32)[C@H](C)Cl)C(O)[C@@H](O)[C@H]1O (stereo partly drawn) [FSA-510011] | 32 (≈ 64.8 µM) | 8 (≈ 16.2 µM) | 2 (≈ 4.05 µM) |  |  | 32 (≈ 64.8 µM) | > 64 | > 64 | > 64 | > 64 | > 64 |  |  |  |  | > 64
13 | CSC1O[C@H]([C@H](NC(=O)[C@H]2NC[C@@H]3C[C@@H](C4CCN(C)CC4)CCO[C@H]32)[C@H](C)Cl)C(O)[C@@H](O)[C@H]1O (stereo partly drawn) [FSA-512012] | 8 (≈ 14.9 µM) | 1 (≈ 1.87 µM) | 4 (≈ 7.46 µM) | 64 (≈ 119 µM) |  |  |  | > 256 | > 256 | > 256 | > 256 |  | 8 (≈ 14.9 µM) |  |  | 
14 | CSC1O[C@H]([C@H](NC(=O)[C@H]2NC[C@@H]3CC(c4ccc(-c5ccccc5)cc4)=CCO[C@H]32)[C@H](C)Cl)C(O)[C@@H](O)[C@H]1O (stereo partly drawn) [FSA-510001] | 2 (≈ 3.39 µM) | 4 (≈ 6.79 µM) | 2 (≈ 3.39 µM) |  |  | 2 (≈ 3.39 µM) | > 64 | > 64 | > 64 | 8 (≈ 13.6 µM) |  |  |  | 16 (≈ 27.2 µM) |  | 8 (≈ 13.6 µM)
